Values belong to the compound of their own block, whether it stands above or below them.
Tests used:
[1] = system: STZ-induced diabetic rats; experiment: Nociceptive threshold in STZ-induced diabetic rats (single administration), Randall-Selitto method; format: in vivo, rat; settings: for Nociceptive threshold before administration / Nociceptive threshold after administration: mean±SE; for Nociceptive threshold after administration: one hour after administration
Description: Measurement of the Nociceptive Threshold in STZ-Induced Diabetic Rats (Single Administration)
STZ (50 mg/kg) was administered intravenously to male SD stain rats to induce diabetes mellitus. Test articles were administered 14 days later (10 rats in each group). Test articles used were clonidine as the α2 AR stimulant, terbutaline as the β2 AR stimulant and the above-mentioned Compound 1. Normal and Control groups received the medium (0.5% methylcellulose). Before and one hour after administration of test articles, the nociceptive threshold against pressure stimulation given to the right hind-paw of rats was measured by Randall-Selitto method, and compared with that in Control group.

[2] = system: STZ-induced diabetic rats; experiment: Nociceptive threshold in STZ-induced diabetic rats (repeated administration), Randall-Selitto method; format: in vivo, rat; settings: for Nociceptive threshold before administration / Nociceptive threshold after administration / nociceptive threshold following repeated administration for 14 days: Example 2; for Nociceptive threshold before administration / Nociceptive threshold after administration: 14 times, mean±SE; for Nociceptive threshold before administration: before the final administration; for Nociceptive threshold after administration: one hour after the final administration; for nociceptive threshold following repeated administration for 14 days: H group (clonidine 1.0 mg/kg subcutaneous; terbutaline 10 mg/kg oral), versus Control group; for nociceptive threshold after 14-day repeated, sole administration: Example 3, FIG. 1, L and M groups (clonidine 0.1, 0.3 mg/kg subcutaneous; terbutaline 1, 3 mg/kg oral)
Description: Measurement of the Nociceptive Threshold in STZ-Induced Diabetic Rats (Repeated Administration)
STZ (50 mg/kg) was administered intravenously to male SD stain rats to induce diabetes mellitus. […] Normal and Control groups received the medium (0.5% methylcellulose). Before the final administration (before administration of test articles) and after the final administration (one hour after the administration), the nociceptive threshold against pressure stimulation given to the right hind-paw of rats was measured by Randall-Selitto method, and compared with that in Control group.

[3] = biological target: T1, β2 AR (Rattus norvegicus, UniProt P10608); experiment: Receptor binding test of β2 AR; settings: 3H-dihydroalprenolol; fascia of rat gravid uterus; read-out: binding affinity (IC50 value) to β2 AR
T1 construct: the fascia of gravid uterus (β2 AR) as the sources of receptors; from tissue; host or cells: rat gravid uterus (fascia/membrane specimen)
T1 sequence (P10608 whole entry): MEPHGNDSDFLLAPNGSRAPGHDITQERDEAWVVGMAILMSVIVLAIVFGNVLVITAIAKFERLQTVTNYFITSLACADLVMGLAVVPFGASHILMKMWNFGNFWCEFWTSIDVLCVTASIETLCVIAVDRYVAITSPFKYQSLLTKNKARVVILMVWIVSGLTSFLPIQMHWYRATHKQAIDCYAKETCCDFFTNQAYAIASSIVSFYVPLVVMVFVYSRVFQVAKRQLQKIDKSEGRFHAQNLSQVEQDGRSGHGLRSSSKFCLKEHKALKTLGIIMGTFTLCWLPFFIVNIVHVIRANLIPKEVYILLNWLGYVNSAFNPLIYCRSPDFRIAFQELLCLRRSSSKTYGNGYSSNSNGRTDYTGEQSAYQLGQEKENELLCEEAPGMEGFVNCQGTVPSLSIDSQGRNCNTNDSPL
Description: Receptor Binding Tests of α2 AR and β2 AR
Receptor binding tests were conducted in ^3H-p-aminoclonidine and ^3H-dihydroalprenolol (3 rats in each) using specimens of the membrane of rat cerebral cortex (α2 AR) and the fascia of gravid uterus (β2 AR) as the sources of receptors. The binding ability of Compound 1 to α2 AR and β2 AR were obtained by calculating binding inhibition rates (IC50 values) of Compound 1 against the binding abilities of the above-mentioned tracers with both receptors.

[4] = system: Seltzer model rats; experiment: Nociceptive threshold in Seltzer model rats (single administration), Randall-Selitto method; format: in vivo, rat; settings: Example 6, FIG. 3, 10 mg/kg oral, one hour after administration
Text: Measurement of the Nociceptive Threshold in Seltzer Model Rats (Single Administration)
Ten, 9-week old male SD rats were anesthetized with pentobarbital (Nembutal injection®), and the right sciatic nerve was exposed. In Nerve ligation group (7 rats), half of the dorsal portion of the nerve was ligated using 5-0 nylon thread. In Normal group (3 rats), the sciatic nerve was only exposed. Three weeks after the model was created, the control group received the medium (0.5% methylcellulose) and Nerve ligation group was given orally test articles. Before the administration (before administration of test articles) and after administration (one hour after the administration of test articles), the nociceptive threshold against pressure stimulation given to the right hind-paw of rats was measured by Randall-Selitto method. Results before and after administration were compared.

[5] = system: Seltzer model rats; experiment: Nociceptive threshold in Seltzer model rats (repeated administration), Randall-Selitto method; format: in vivo, rat; settings: Example 7, FIG. 4; 10 mg/kg oral, 14-day repeated
Description: Measurement of the Nociceptive Threshold in Seltzer Model Rats (Repeated Administration)
Thirty, 7-week old male SD rats were anesthetized with pentobarbital (Nembutal injection®), and the right sciatic nerve was exposed. In the nerve ligation group (20 rats), half of the dorsal portion of the nerve was ligated using 6-0 silk thread. In the normal group (10 rats), the sciatic nerve was only exposed. Beginning the following day of the model creation, test articles were administered orally once a day, repeatedly, 14 times in total. Normal and Control groups received the medium (0.5% methyl-cellulose) and Nerve ligation group was given orally test articles. One hour after the final administration, the nociceptive threshold against pressure stimulation given to the right hind-paw of rats was measured by Randall-Selitto method, and compared with Control group.

[6] = Example 1, H group 10.0 mg/kg oral
[7] = Example 1, L group 1.0 mg/kg oral
[8] = H group 10.0 mg/kg oral once a day
[9] = L group 1.0 mg/kg oral once a day
[10] = M group 3.0 mg/kg oral once a day
[11] = Example 1, H group 1.0 mg/kg subcutaneous
[12] = Example 1, L group 0.1 mg/kg subcutaneous
[13] = H group 1.0 mg/kg subcutaneous once a day
[14] = L group 0.1 mg/kg subcutaneous once a day
[15] = M group 0.3 mg/kg subcutaneous once a day

Structure (SMILES): CC(C)(C)NCC(O)c1cc(O)cc(O)c1 (centres unmarked) [Terbutaline, terbutaline]
- Nociceptive threshold before administration [1, 6]: 122.6 ± 14.5 g
- Nociceptive threshold after administration [1, 6]: 146.8 ± 20.7 g
- Nociceptive threshold before administration [1, 7]: 134.2 ± 6.3 g
- Nociceptive threshold after administration [1, 7]: 152.8 ± 12.7 g
- Nociceptive threshold before administration [2, 8]: 228.2 ± 11.1 g
- Nociceptive threshold after administration [2, 8]: 229.0 ± 14.8 g
- nociceptive threshold following repeated administration for 14 days [2]: increased significantly
- Nociceptive threshold before administration [2, 9]: 113.8 ± 11.9 g
- Nociceptive threshold after administration [2, 9]: 115.2 ± 12.6 g
- Nociceptive threshold before administration [2, 10]: 155.4 ± 32.0 g
- Nociceptive threshold after administration [2, 10]: 167.8 ± 32.3 g
- nociceptive threshold after 14-day repeated, sole administration [2]: in neither L groups or M groups of either test articles, the nociceptive threshold increased

Structure (SMILES): Clc1cccc(Cl)c1N=C1NCCN1 [Clonidine, clonidine]
- analgesic effect compared with Control group ([1]; Example 1, H group 1.0 mg/kg subcutaneous, after administration): apparent analgesic effect
- Nociceptive threshold before administration [1, 11]: 115.4 ± 8.9 g
- Nociceptive threshold after administration [1, 11]: 325.8 ± 29.8 g
- Nociceptive threshold before administration [1, 12]: 122.8 ± 7.5 g
- Nociceptive threshold after administration [1, 12]: 155.8 ± 16.3 g
- Nociceptive threshold before administration [2, 13]: 97.2 ± 14.5 g
- Nociceptive threshold after administration [2, 13]: 254.4 ± 33.3 g
- nociceptive threshold following repeated administration for 14 days [2]: increased significantly
- Nociceptive threshold before administration [2, 14]: 129.2 ± 15.9 g
- Nociceptive threshold after administration [2, 14]: 180.6 ± 24.4 g
- Nociceptive threshold before administration [2, 15]: 104.2 ± 13.8 g
- Nociceptive threshold after administration [2, 15]: 115.2 ± 18.2 g
- nociceptive threshold after 14-day repeated, sole administration [2]: in neither L groups or M groups of either test articles, the nociceptive threshold increased

- IC50 [3]: 14 nM
Structure (SMILES): CN(C)C(=O)COc1ccc2c(c1)C[C@@H](NC[C@H](O)c1ccc(O)c(CO)c1)CC2 [Compound 1, (-)-bis{2-[(2S)-2-[{(2R)-2-hydroxy-2-(4-hydroxy-3-hydroxymethyl-phenyl)ethyl}amino]-1,2,3,4-tetrahydronaphthalen-7-yloxy]-N,N-dimethylacetamide}sulfate dihydrate]
- Nociceptive threshold before administration ([1]; Example 4, 0.3 mg/kg oral): 71.8 ± 5.3 g
- Nociceptive threshold after administration ([1]; Example 4, 0.3 mg/kg oral): 117.6 ± 10.7 g
- Nociceptive threshold before administration ([1]; Example 4, 1.0 mg/kg oral): 95.0 ± 5.1 g
- Nociceptive threshold after administration ([1]; Example 4, 1.0 mg/kg oral): 131.0 ± 12.3 g
- analgesic effects ([1]; Example 4, 3 mg/kg and 10 mg/kg oral): apparent analgesic effects
- Nociceptive threshold before administration ([1]; Example 4, 3.0 mg/kg oral): 92.0 ± 13.3 g
- Nociceptive threshold after administration ([1]; Example 4, 3.0 mg/kg oral): 174.6 ± 15.4 g
- Nociceptive threshold before administration ([1]; Example 4, 10.0 mg/kg oral): 89.0 ± 10.2 g
- Nociceptive threshold after administration ([1]; Example 4, 10.0 mg/kg oral): 253.4 ± 28.3 g
- nociceptive thresholds after administration, dose dependence ([1]; Example 4, 0.3, 1, 3 and 10 mg/kg oral): increased dose-dependently
- nociceptive thresholds after administration, dose dependence ([2]; Example 5, FIG. 2, 0.3, 1, 3 and 10 mg/kg oral, 14-day repeated): clearly increased dose-dependently beginning at dosage of 0.3 mg/kg
- nociceptive threshold compared with Normal group ([2]; Example 5, FIG. 2, oral, 14-day repeated): improved the nociceptive threshold to the same level as in Normal group
- effect of repeated administration compared with single administration ([2]; Example 5, oral, 14-day repeated versus single): stronger effect increasing the nociceptive threshold than single administration
- nociceptive threshold of Nerve ligation group in comparison with that before administration [4]: improved significantly
- nociceptive threshold of the right hind-paw in comparison with that of Control group [5]: improved significantly

Source: patent publication US20070219185A1, “Preventive or therapeutic agent for neuropathic pain” (priority 2004, published 2007)
